Assays:
[1] = Pharmacokinetics after a single oral administration of venadaparib 80 mg (fasted or fed state) in healthy male subjects; assay type: in vivo, human; conditions: for AUCinf / AUClast / CL/F / Cmax / Vd/F / t1/2 / Tmax: 80 mg single oral; for AUCinf / AUClast / CL/F / Cmax / Vd/F / t1/2: mean ± SD; for Tmax: median (minimum–maximum); for AUCinf geometric mean ratio (90% confidence interval) / AUClast geometric mean ratio (90% confidence interval) / Cmax geometric mean ratio (90% confidence interval): fed to fasted state
Procedure: A randomized, open-label, single-dose, two-sequence, and two-period crossover study was conducted with 12 Korean and 12 Caucasian subjects. Subjects in each ethnic group were randomly assigned to one of the two sequences at a ratio of 1:1 (Fig. 1). The subjects were orally administered 80 mg of venadaparib in each treatment period (fasted or fed state), following an overnight fast of at least 10 h. There was a seven-day washout between the two treatment periods. In the fed state, the subjects consumed an entire high-fat meal (total of 800–1000 kcal, fat of 500–600 kcal) within 20 min and were subsequently administered the study drug with 240 mL of water 30 min after the start of the meal. An open-label, single-dose study was conducted on 12 Chinese subjects who received 80 mg of venadaparib only in the fasted state (Fig. 1).
Based on the PK results of venadaparib in a previous study (NCT03317743), serial blood samples for the PK analysis of venadaparib were collected at 0 (pre-dose), 0.25, 0.5, 1, 2, 3, 4, 6, 8, 10, 12, 24, 36, 48, and 72 h post-dose for all treatment and ethnic groups. The blood samples were collected in a K2-ethylenediaminetetraacetic acid (EDTA) vacutainer, centrifuged at 4 ℃ and 3000 rpm for 10 min, and stored at − 70 ℃ until analysis.
Plasma concentrations of venadaparib were determined using validated high-performance liquid chromatography (Exion LC, AB Sciex) coupled with mass spectrometry (Triple Quad 5500+, AB Sciex). Venadaparib as an analyte and olaparib as the internal standard were separated using a Gemini 3 μm NX-C18 110 Å (100 × 3 mm) column (Phenomenex, CA, USA) at 40 ℃. The mobile phase comprised 0.1% formic acid in distilled water and 100% acetonitrile at a flow rate of 0.3 mL/minute. Venadaparib and olaparib were detected with a turbo-ion spray in positive ionization mode at an m/z transition of 407.2 → 70.0 and 435.2 → 281.1, respectively.
The calibration curve for venadaparib ranged from 5 to 5000 μg/L, with precision and accuracy ranging from 1.89 to 4.00% and 92.98 to 102.80%, respectively. For the quality control sample data of venadaparib, the precision and accuracy ranged from 4.38 to 5.18% and 96.75 to 102.59%, respectively.
The PK parameters of venadaparib were calculated by a non-compartmental method using Phoenix WinNonlin software version 8.3.4 (Certara, NJ, USA). The area under the plasma concentration-time curve (AUC) was determined using the linear-up log-down trapezoidal method. The primary PK parameters were Cmax and AUC from time zero to the last measurable time point (AUClast) for comparison between the exposures to the effects of food and ethnicity. The following secondary PK parameters were calculated: AUC from time zero to infinity (AUCinf), time to reach Cmax (Tmax), t1/2, apparent total clearance (CL/F), and apparent volume of distribution (Vd/F).
Statistical analyses were conducted using SAS software version 9.4 (SAS Institute Inc., NC, USA). The primary PK parameters in the fed and fasted states were compared by estimating the geometric mean ratios and 90% confidence intervals using a linear mixed-effects model. The model included the sequence, period, and treatment as fixed effects, and the subject nested within the sequence as a random effect. Analysis of variance (ANOVA) tests were conducted to assess possible differences in the values of the primary PK parameters among the ethnic groups in the fasted state.

[2] = system: PARP1; set-up: method as in PMID 36808277; conditions: cited from earlier work
[3] = system: PARP2; set-up: method as in PMID 36808277; conditions: cited from earlier work
[4] = system: PARP5; set-up: method as in PMID 36808277; conditions: cited from earlier work
[5] = system: poly(ADP-ribose) formation; set-up: method as in PMID 36808277, PMID 24162931, PMID 33657415; conditions: cited from earlier work
[6] = system: PARP; set-up: method as in PMID 36808277, PMID 24162931, PMID 33657415; conditions: cited from earlier work
[7] = system: patient-derived xenograft; set-up: method as in PMID 36808277; conditions: patient-derived xenograft mouse model; cited from earlier work
[8] = Caucasian, fasted state (N = 12)

## O=C(c1cc(Cc2n[nH]c(=O)c3ccccc23)ccc1F)N1CC(CNC2CC2)C1 [venadaparib]
[1]; [8]
  AUCinf: 14202.62 ± 4352.38 ng·h/mL
  AUClast: 14091.32 ± 4285.15 ng·h/mL
  CL/F: 6.10 ± 1.73 L/h
  Cmax: 2392.29 ± 464.48 ng/mL
  Vd/F: 72.52 ± 18.25 L
  t1/2: 9.32 ± 4.98 h
  Tmax: 0.50 (0.50–2.00) h
[1]; Caucasian, fed state (N = 12)
  AUCinf: 13752.20 ± 4522.49 ng·h/mL
  AUClast: 13557.03 ± 4401.60 ng·h/mL
  CL/F: 6.33 ± 1.78 L/h
  Cmax: 1894.30 ± 602.49 ng/mL
  Vd/F: 124.29 ± 71.28 L
  t1/2: 14.16 ± 7.16 h
  Tmax: 2.00 (1.00–4.00) h
[1]; Caucasian, 80 mg
  AUCinf geometric mean ratio (90% confidence interval): 0.96 (0.9074–1.0260)
  AUClast geometric mean ratio (90% confidence interval): 0.96 (0.9017–1.0186)
  Cmax geometric mean ratio (90% confidence interval): 0.77 (0.6871–0.8609)
[1]; Caucasians, 80 mg
  Decrease of Cmax in the fed state compared with the fasted state: 23%
[1]; Chinese, fasted state (N = 12)
  AUCinf: 14981.87 ± 4276.66 ng·h/mL
  AUClast: 14878.51 ± 4254.97 ng·h/mL
  CL/F: 5.84 ± 2.02 L/h
  Cmax: 2390.12 ± 576.02 ng/mL
  Vd/F: 53.23 ± 20.51 L
  t1/2: 6.95 ± 4.18 h
  Tmax: 1.00 (0.50–2.00) h
[1]; Korean, fasted state (N = 12)
  AUCinf: 12453.18 ± 3565.66 ng·h/mL
  AUClast: 12347.13 ± 3514.30 ng·h/mL
  CL/F: 6.92 ± 1.95 L/h
  Cmax: 2165.59 ± 446.08 ng/mL
  Vd/F: 83.84 ± 48.70 L
  t1/2: 9.06 ± 6.08 h
  Tmax: 0.50 (0.50–2.00) h
[1]; Korean, fed state (N = 12)
  AUCinf: 13108.90 ± 5771.31 ng·h/mL
  AUClast: 12972.02 ± 5734.25 ng·h/mL
  CL/F: 6.95 ± 2.29 L/h
  Cmax: 1835.01 ± 637.11 ng/mL
  Vd/F: 104.18 ± 57.31 L
  t1/2: 10.80 ± 5.10 h
  Tmax: 2.00 (0.50–4.00) h
[1]; Korean, 80 mg
  AUCinf geometric mean ratio (90% confidence interval): 1.02 (0.9126–1.1360)
  AUClast geometric mean ratio (90% confidence interval): 1.02 (0.9088–1.1339)
  Cmax geometric mean ratio (90% confidence interval): 0.82 (0.7457–0.9094)
[1]; Koreans and Caucasians, 80 mg
  Reduction of peak concentrations after a high-fat meal: approximately 20%
[1]; Koreans, 80 mg
  Decrease of Cmax in the fed state compared with the fasted state: 18%
[1]; fasted state, 80 mg
  PK profiles among the Korean, Caucasian, and Chinese subjects: comparable
[1]; fed vs fasted state, 80 mg
  Effect of the high-fat meal on overall systemic exposure: not significantly affected
[2]
  IC50 compared with those of olaparib: similar
[3]
  IC50 compared with those of olaparib: similar
[4]
  IC50 compared with those of olaparib: higher
[5]
  Activity of inhibiting poly(ADP-ribose) formation, relative to talazoparib: comparable
[6]
  Activity of trapping PARP, relative to talazoparib: comparable
[7]
  Tumor growth inhibition rate: 131.0–135.2%
